Experimental data published in patent US5216175A, “Antimalarial analogs of artemisinin” (SRI International, priority 1990, dated 1993).
≈ marks a conversion by molar mass, not a printed value. Read-outs that look alike come from different tables or passages of the source.

How the values were obtained:
P. falciparum D-6 clone = assay: In vitro antimalarial activity, P. falciparum D-6 clone; assay type: cell-based; conditions: for IC50: Plasmodium falciparum; for times as potent as QHS against the D-6 clone: relative to QHS
Excerpt: (§1) The analogs have been segregated arbitrarily here into those compounds in which the tetracyclic skeleton is intact (Table 2) and various ring-cleaved analogs (Table 3). The activities of the conventional malaria therapeutics chloroquine, mefloquine, and pyrimethamine is included for comparison.

P. falciparum W-2 clone = assay: In vitro antimalarial activity, P. falciparum W-2 clone; assay type: cell-based; conditions: for IC50: Plasmodium falciparum; for times as potent as QHS against the W-2 clone: relative to QHS
Excerpt: as §1

[1] = Table 3, tricyclic analogs, D-6 clone
[2] = Table 3, tricyclic analogs, W-2 clone, read-out: In vitro IC50 W-2 clone
[3] = Table 3, tricyclic analogs, W-2 clone
[4] = Table 3, tricyclic analogs, D-6 clone, read-out: In vitro IC50 D-6 clone
[5] = Table 2, W-2 clone, drug-resistant strains of P. falciparum, read-out: IC50 W-2 clone
[6] = Table 2, W-2 clone, drawing 57 (artemisinin) = 100
[7] = Table 2, D-6 clone, drug-resistant strains of P. falciparum, read-out: IC50 D-6 clone
[8] = Table 2, D-6 clone, drawing 57 (artemisinin) = 100

Molecule	IC50 (P. falciparum W-2 clone; [5])	Relative potency (W-2 clone) (P. falciparum W-2 clone; [6])	IC50 (P. falciparum D-6 clone; [7])	Relative potency (D-6 clone) (P. falciparum D-6 clone; [8])	other results
(-)-Hexahydro-3,3,10a,11β-tetramethyl-4aH,6H-1,2,4-trioxino-[6.5-j]benzopyran-6-one [compound 4592]	–	–	–	–	In vitro IC50 D-6 clone (P. falciparum D-6 clone; [1]): 1.28 ng/mL; Relative potency (D-6 clone) (P. falciparum D-6 clone; [1]): 58
CC1(C)OO[C@]23CCCC[C@H]2CC(=O)O[C@@H]3O1 (relative stereo) [compound 4593, (±)-Hexahydro-3,3-dimethyl-4aH,6H-1,2,4-trioxino-[6.5-j][2] benzopyran-6-one]	–	–	–	–	IC50 (P. falciparum W-2 clone; [2]): 178 ng/mL (≈ 735 nM); Relative potency (W-2 clone) (P. falciparum W-2 clone; [3]): 0.5; IC50 (P. falciparum D-6 clone; [4]): 189 ng/mL (≈ 779 nM); Relative potency (D-6 clone) (P. falciparum D-6 clone; [1]): 0.4
CCCC[C@H]1C(=O)O[C@@H]2OC(C)(C)OO[C@@]23CCCC[C@@H]13 (relative stereo) [compound 4590, 7-Butyl-3,3-dimethyl-4aH,6H-hexahydro-1,2,4-trioxino[6.5-j] benzopyran-6-one]	–	–	–	–	IC50 (P. falciparum W-2 clone; [2]): 11.8 ng/mL (≈ 39.5 nM); Relative potency (W-2 clone) (P. falciparum W-2 clone; [3]): 7; IC50 (P. falciparum D-6 clone; [4]): 13.9 ng/mL (≈ 46.8 nM); Relative potency (D-6 clone) (P. falciparum D-6 clone; [1]): 5
CC[C@H]1C(=O)O[C@@H]2O[C@@]3(C)CC[C@H]4[C@H](C)CC[C@@H]1[C@@]24OO3 [compound 4586]	0.18 ng/mL (≈ 0.607 nM)	1226	0.72 ng/mL (≈ 2.43 nM)	642	times as potent as QHS against the W-2 clone (P. falciparum W-2 clone; W-2 clone): 11.7 times; times as potent as QHS against the D-6 clone (P. falciparum D-6 clone; D-6 clone): 6.17 times
CCN(CC)CCCC(C)Nc1ccnc2cc(Cl)ccc12 (centres unmarked) [Chloroquine, reference compound]	–	7	–	83	IC50 (P. falciparum W-2 clone; read-out: IC50 W-2 clone): 31.7 ng/mL (≈ 99.1 nM); IC50 (P. falciparum D-6 clone; read-out: IC50 D-6 clone): 5.33 ng/mL (≈ 16.7 nM)
C[C@@H]1CC[C@H]2CC(=O)N(C)[C@@H]3O[C@@]4(C)CC[C@@H]1[C@@]23OO4 [compound 4585, (-)-Octahydro-3,6,11-trimethyl-3,12-epoxy-12H-pyridino-[4.3-j] 1,2-benzo dioxepin-10(3H)-one]	0.42 ng/mL (≈ 1.49 nM)	502	2.05 ng/mL (≈ 7.29 nM)	214	times as potent as QHS against the W-2 clone (P. falciparum W-2 clone; W-2 clone): 5 times; times as potent as QHS against the D-6 clone (P. falciparum D-6 clone; D-6 clone): 21.7 times
CCO[C@H]1O[C@@H]2O[C@@]3(C)CC[C@H]4[C@H](C)CC[C@@H]([C@H]1CC)[C@@]24OO3 [compound 4598]	0.18 ng/mL (≈ 0.551 nM)	272	0.22 ng/mL (≈ 0.674 nM)	550	–
(+)-Hexahydro-3,3,7,10α,11β-pentamethyl-4aH,6H-1,2,4-trioxino-[ 6.5-j][2] benzopyran-6-one [compound 4594]	–	–	–	–	In vitro IC50 W-2 clone (P. falciparum W-2 clone; [3]): 2.06 ng/mL; Relative potency (W-2 clone) (P. falciparum W-2 clone; [3]): 24; In vitro IC50 D-6 clone (P. falciparum D-6 clone; [1]): 5.35 ng/mL; Relative potency (D-6 clone) (P. falciparum D-6 clone; [1]): 23
O=C1C[C@@H]2CCC[C@@H]3C[C@H]4OO[C@]32[C@H](O1)O4 (relative stereo) [compound 4589, Octahydro-3,11-epoxy-11H-pyrano[4.3-j]-1,2-benzodioxan-9(3H) -one]	88.7 ng/mL (≈ 392 nM)	2	129 ng/mL (≈ 572 nM)	2	–
CCC[C@H]1C(=O)O[C@@H]2O[C@@]3(C)CC[C@H]4[C@H](C)CC[C@@H]1[C@@]24OO3 [compound 4599]	0.04 ng/mL (≈ 0.129 nM)	1225	0.22 ng/mL (≈ 0.709 nM)	550	–
CCC[C@H]1[C@@H](OCC)O[C@@H]2O[C@@]3(C)CC[C@H]4[C@H](C)CC[C@@H]1[C@@]24OO3 [compound 4600, (+)-Octahydro-3,6-dimethyl-10β-ethoxy-3,12-epoxy-9β-propyl-12H-pyrano[4.3-j]-1,2-benzodioxepine]	0.63 ng/mL (≈ 1.85 nM)	76	0.39 ng/mL (≈ 1.15 nM)	120	–
CC(C)CC[C@H]1C(=O)O[C@@H]2O[C@@]3(C)CC[C@H]4[C@H](C)CC[C@@H]1[C@@]24OO3 [compound 2822]	0.5 ng/mL (≈ 1.48 nM)	98	0.35 ng/mL (≈ 1.03 nM)	157	–
C[C@@]12CC[C@H]3CCC[C@H]4CC(=O)O[C@H](O1)[C@@]34OO2 (relative stereo) [compound 4580, (±)-6,9-desmethylartemisinin]	3.92 ng/mL (≈ 15.4 nM)	48	33.7 ng/mL (≈ 133 nM)	12	–
C[C@@H]1CC[C@H]2CC(=O)N(Cc3ccccc3)[C@@H]3O[C@@]4(C)CC[C@@H]1[C@@]23OO4 [compound 2803]	0.07 ng/mL (≈ 0.196 nM)	171	0.45 ng/mL (≈ 1.26 nM)	149	–
C[C@@H]1CCC[C@@]23CO[C@@](C)(CC[C@@H]12)OO3 [compound 2823]	–	–	–	–	IC50 (P. falciparum D-6 clone; [4]): 0.8 ng/mL (≈ 3.77 nM); Relative potency (D-6 clone) (P. falciparum D-6 clone; [1]): 37
C[C@@H]1CC[C@H]2CC(=O)N(CC(=O)O)[C@@H]3O[C@@]4(C)CC[C@@H]1[C@@]23OO4 [compound 2804]	–	–	122 ng/mL (≈ 376 nM)	5.5	–
CCCC(=O)OCC(CC)(CC)OOC(C)(C)C [compound 4597, 2-t-Butylperoxy-2-ethylbutyl Butyrate]	–	–	–	–	In vitro IC50 W-2 clone (P. falciparum W-2 clone; [3]): Inactive; In vitro IC50 D-6 clone (P. falciparum D-6 clone; [1]): Inactive
C[C@@H]1CC[C@H]2[C@@H](C)C(=O)O[C@@H]3O[C@@]4(C)CC[C@@H]1[C@]32OO4 [(+)-Artemisinin, reference compound]	2.11 ng/mL (≈ 7.47 nM)	100	4.44 ng/mL (≈ 15.7 nM)	100	–
CCC(=O)OCC(CC)(CC)OOC(C)(C)C [compound 4596, 2-t-Butylperoxy-2-ethylbutyl proprionate]	–	–	–	–	In vitro IC50 W-2 clone (P. falciparum W-2 clone; [3]): Inactive; In vitro IC50 D-6 clone (P. falciparum D-6 clone; [1]): Inactive
C[C@@H]1CC[C@H]2[C@@H](C)C(=O)O[C@@H]3OC(C)(C)OO[C@@]32C1 [compound 2816]	–	–	–	–	IC50 (P. falciparum W-2 clone; [2]): 1.46 ng/mL (≈ 5.4 nM); Relative potency (W-2 clone) (P. falciparum W-2 clone; [3]): 75; IC50 (P. falciparum D-6 clone; [4]): 1.29 ng/mL (≈ 4.77 nM); Relative potency (D-6 clone) (P. falciparum D-6 clone; [1]): 108
C[C@@H]1CC[C@H]2[C@@H](CCCc3ccccc3)C(=O)O[C@@H]3O[C@@]4(C)CC[C@@H]1[C@]32OO4 [compound 2821]	0.11 ng/mL (≈ 0.285 nM)	445	0.09 ng/mL (≈ 0.233 nM)	611	–
CC1C(=O)OC(O[Si](C)(C)C(C)(C)C)C2(OO)CCCCC12 (centres unmarked) [compound 4581]	–	–	–	–	IC50 (P. falciparum W-2 clone; read-out: In vitro IC50 W-2 clone): 2890 ng/mL (≈ 8750 nM); Relative potency (W-2 clone) (P. falciparum W-2 clone; [3]): 0; IC50 (P. falciparum D-6 clone; read-out: In vitro IC50 D-6 clone): 3020 ng/mL (≈ 9130 nM); Relative potency (D-6 clone) (P. falciparum D-6 clone; [1]): 0
C[C@@H]1CC[C@H]2CC(=O)O[C@@H]3O[C@@]4(C)CC[C@@H]1[C@@]23OO4 [compound 4584]	0.31 ng/mL (≈ 1.16 nM)	650	2.32 ng/mL (≈ 8.65 nM)	180	–
OC(c1cc(C(F)(F)F)nc2c(C(F)(F)F)cccc12)C1CCCCN1 (centres unmarked) [Mefloquine, reference compound]	2.4 ng/mL (≈ 6.34 nM)	88	43.7 ng/mL (≈ 116 nM)	10	–
C[C@H]1[C@@H](OOC(C)(C)C)O[C@@H]2O[C@@]3(C)CC[C@H]4[C@H](C)CC[C@@H]1[C@@]24OO3 [compound 4588]	0.41 ng/mL (≈ 1.15 nM)	656	0.53 ng/mL (≈ 1.49 nM)	1054	–
CCc1nc(N)nc(N)c1-c1ccc(Cl)cc1 [pyrimethamine, reference compound]	121 ng/mL (≈ 486 nM)	2	0.35 ng/mL (≈ 1.41 nM)	1269	–
C[C@@H]1CC[C@H]2C(C)(C)C(=O)O[C@@H]3O[C@@]4(C)CC[C@@H]1[C@]32OO4 [compound 2800, (+)-Octahydro-3,12-epoxy-3,6,9,9-tetramethyl-12H-pyrano [4.3-j]-1,2-benzo dioxepin-10(3H)-one]	25.5 ng/mL (≈ 86.1 nM)	0.63	20.9 ng/mL (≈ 70.5 nM)	2.1	–
CCCCCC[C@H]1C(=O)O[C@@H]2O[C@@]3(C)CC[C@H]4[C@H](C)CC[C@@H]1[C@@]24OO3 [compound 2817]	0.02 ng/mL (≈ 0.0567 nM)	550	0.03 ng/mL (≈ 0.0851 nM)	467	–
CC(C)[C@H]1C(=O)O[C@@H]2O[C@@]3(C)CC[C@H]4[C@H](C)CC[C@@H]1[C@@]24OO3 [compound 2820]	0.58 ng/mL (≈ 1.87 nM)	84	0.27 ng/mL (≈ 0.87 nM)	203	–
